The structures appear in SMILES notation.

This assay deals with human colon cancer cells (HCT-15). Briefly: Anticancer effect in nude mice transplanted with human colon cancer cells (tumor volume). The class given is in vivo, BALB/C nude mice. Conditions: G2, 2 mg/kg abdominal, once in 2 days. On the procedure:
The anticancer effect of the inventive composition was tested at the Chemon Preclinical Research Center (approved by the KGLP) using a nude mouse transplanted with human colon cancer cells.
7-weeks-old specific pathogen free (SPF) athymic BALB/C nude mice (SLC Japan, Japan) were weighed and grouped to 6 groups, 10 per each group, as follows: negative control group (1), positive control group (1) and test groups (4). The mice were identified by the identification label of the cage and using ear punching.
The test groups were designed as in Table 1.
Colon cancer cells (HCT15) were thawed in a constant-temperature water bath of […] as soon as possible. After mixing well with 10 mL of RPMI1640 culture medium (Sigma Aldrich, USA), centrifuge was performed at 1000 rpm for 10 minutes. The resulting cell pellet was mixed well with 5 mL of RPMI1640 culture medium containing 10% fetal bovine serum (FBS), and the cells were cultured in a cell culture flask under the condition of 37° C. and 5% CO2. The cultured cancer cells were suspended in physiological saline to a concentration of 1×10^7 cells/mL and transplanted subcutaneously to the mice, 0.3 mL (3×10^6 cells) each.
The composition prepared in Example 1 was suspended at various concentrations in sterilized, distilled water for injection (Choongwae Pharma Corporation, Korea) as excipient, ground using a grinding machine (homogenizer), and orally administered to the mice at a dose of 75 mg/kg body weight (G3), 150 mg/kg body weight (G4) or 300 mg/kg body weight (G5), respectively, for 3 weeks, twice a day. Of the test groups, the pre-administration group (G6) had been orally administered with the composition at a dose of 300 mg/kg body weight for 3 weeks, twice a day, before the transplantation of the cancer cells. Following the transplantation of the cancer cells, they were administered in the same way for 3 weeks.
In the negative control group (G1), the excipient was orally administered for 3 weeks, twice a day, instead of the inventive anticancer composition. […] The doxorubicin solution was prepared by dissolving in the excipient by a method known in the art.
During the test, the mice were kept under the condition of 23±3° C. and relative humidity of 55±15%, and access to water and feed was allowed freely.
Tumor volume was measured on days 12, 15, 19 and 22 after the inoculation of the cancer cells. Length, width and height of the tumor were measured using a vernier caliper, and the tumor volume was calculated by the following equation: Tumor volume=(Length×Width×Height)÷2 The tumor volume measurement result is given in Table 2 (unit: mm^3).

On to `COc1cccc2c1C(=O)c1c(O)c3c(c(O)c1C2=O)C[C@@](O)(C(=O)CO)C[C@@H]3O[C@H]1C[C@H](N)[C@H](O)[C@H](C)O1` [doxorubicin], for which the Tumor volume (Day 12) turned out to be 29.3 ± 16.0 mm^3, the Tumor volume (Day 15) is 93.7 ± 65.9 mm^3, the Tumor volume (Day 19) was 149.0 ± 77.6 mm^3 and the Tumor volume (Day 22) was determined as 258.6 ± 160.1 mm^3. Where the note is “day 22”, the “tumor inhibition effect ([1-(tumor volume of administered group/tumor volume of negative control group)]x100)” value was 59.5%.

The values above are taken from patent US11684639B2, “Pharmaceutical composition for preventing and treating cell proliferative disease comprising mixture of feather of birds and scale of fish as an active ingredient” (priority 2007, dated 2023).
